How the values were obtained:
LNCaP cells = assay: LNCaP growth assay (cell count); format: cell-based, human
Experimental: LNCaP cells express an endogenous mutant AR that is found in prostate cancer patients. This clinically relevant cell model was used to study JC9's effect in suppressing prostate cancer cell growth. Cells were plated at a density of 6.3×10^4 cells/well in 6-well tissue culture dishes. Two days later, the complete medium was aspired and 10% charcoal/dextran-treated (hormone depleted) serum-containing medium was added. Test compounds, JC9 and hydroxyflutamide (HF) were then added to the medium at a final concentration of 5 μM with or without 1 nM of DHT. For vehicle control, the same amount of DMSO was added. For the subsequent 5 days, the medium was aspired once per day, and fresh medium containing test compounds and/or DHT was added. At designated times, a portion of cells was harvested by trypsinization, and cell count was performed using a hemacytometer.

[1] = tested on: testosterone-induced hair growth suppression; assay: Androgen-induced alopecia model, hair re-growth in shaved mice; format: in vivo, C57BL/6J mice; settings: topical testosterone 1% in the morning, control solution in the afternoon, 20 days
Experimental: C57BL/6J mice were used in this animal model for hair loss and regrowth (Uno et al. (1990) J. Cutaneous Aging & Cosm. Derm., 1: 193, which is incorporated by reference in its entirety herein). Six-week-old male mice (6 to 7 animals per group) were shaved with an electric clipper, and then treated with a hair-removal cream for 1 to 2 minutes. […] One day after hair removal, a first group of animals each received 100 microliters of a 1% testosterone solution in ethanol, applied topically to the shaved area, once each morning for twenty consecutive days. A second group of animals each received 100 microliters of vehicle (ethanol) alone, applied topically to the shaved area, once each morning for twenty consecutive days. The first group of mice (testosterone-treated) were divided further into a control group and a treatment group. Also beginning one day after hair removal, each mouse in the control group received 100 microliters of a control solution (60% ethanol, 20% propylene glycol, and 20% water) and each mouse in the treatment group received 100 microliters of the test compound, JC9 (0.02% in the same 60% ethanol, 20% propylene glycol, and 20% water solution), applied topically to the shaved area, once each afternoon for twenty consecutive days. Hair re-growth in the shaved areas was observed and photographed at 12, 15, 18, 21, and 24 days after beginning of the topical treatments.

Compound: C[C@]12CCC(=O)C[C@@H]1CC[C@@H]1[C@@H]2CC[C@]2(C)[C@@H](O)CC[C@@H]12 [DHT, dihydrotestosterone]
- LNCaP cell growth with DHT alone (LNCaP cells; 1 nM DHT, 4-5 days): up-regulated LNCaP cell growth

Compound: CC(C)(O)C(=O)Nc1ccc([N+](=O)[O-])c(C(F)(F)F)c1 [HF, hydroxyflutamide]
- cell growth (cell number) in the presence of DHT (LNCaP cells; 5 μM, with 1 nM DHT, 5 days): moderate activity to repress DHT-stimulated cell growth
- cell growth (cell number) (LNCaP cells; 5 μM, without DHT, 5-day incubation): dramatic growth suppressing effect, however, was not detected

Compound: C[C@]12CC[C@H]3[C@@H](CCC4=CC(=O)CC[C@@]43C)[C@@H]1CC[C@@H]2O [testosterone, reference compound]
- hair re-growth in shaved areas [1]: little or no re-growth of hair

— patent publication US20060084704A1, “Methods and compositions for enhancing degradation of nuclear receptor transcription factors and uses thereof” (priority 2004, published 2006)
